Measured values reported in patent US10633570B2, “Anti-ice nucleation activator” (THE SCHOOL CORPORATION KANSAI UNIVERSITY, priority 2015, dated 2020).

Key:
Format in all cases: physicochemical
[1] = Anti-ice nucleation active performance (supercooling acceleration), droplet-freezing method of Vali, with silver iodide; settings: 100 μL mixed with 900 μL silver iodide 1.0 mg/mL, average of three tests; for Anti-ice nucleation activity level (ΔT50 = BlankT50 − SampleT50): purine base aqueous solution 1.0 mg/mL, cooling 1.0° C./min
Protocol: Nine hundred microliters of an aqueous solution was prepared by dissolving silver iodide (produced by Wako Pure Chemical Industries, Ltd.) in ultra-pure water to a silver iodide concentration of 1.0 mg/mL.
(§1) A blank sample was prepared by mixing 100 μL of ultra-pure water with 900 μL of the aqueous solution in which silver iodide was dissolved.
(§2) The anti-ice nucleation active performance (supercooling acceleration performance) was measured by using the droplet-freezing method of Vali. More specifically, in accordance with the droplet-freezing method of Vali (FIG. 3), an aluminum film was placed on the copper plate of a cold plate chiller (CoolAce CCA-1000, Eyela), and the film was coated with a silicone oil suspension diluted with acetone and chloroform (a solution of acetone:chloroform=1:2). Then, each sample for evaluation or the blank sample was dropped (10 μL each) on 30 points of the surface, the temperature was decreased at a rate of 1.0° C./min, and the temperature at which 50% of the 30 droplets were frozen was considered to be T50.
(§3) The droplet-freezing temperature of each sample was referred to as SampleT50, and the droplet-freezing temperature of the blank sample was referred to as BlankT50. Then, the anti-ice nucleation activity level ΔT50 (° C.) was calculated by the following formula: Formula: ΔT50 (° C.)=BlankT50−SampleT50
Nine hundred microliters of an aqueous solution was prepared by dissolving silver iodide in ultra-pure water to a silver iodide concentration of 1.0 mg/mL.
as §1
(§4) The results are average values of the results of the test performed three times.
as §1, §4

Pseudomonas fluorescens = test: Anti-ice nucleation active performance, droplet-freezing method of Vali, with Pseudomonas fluorescens as ice nucleation active substance; settings: Example 1 solution (1.0 mg/mL); Pseudomonas fluorescens in place of silver iodide
Protocol: The anti-ice nucleation active performance (supercooling acceleration performance) was measured by using the droplet-freezing method of Vali. More specifically, in accordance with the droplet-freezing method of Vali (FIG. 3), an aluminum film was placed on the copper plate of a cold plate chiller (CoolAce CCA-1000, Eyela), and the film was coated with a silicone oil suspension diluted with acetone and chloroform (a solution of acetone:chloroform=1:2). […]
as §3
A sample for evaluation of Example 1 was prepared in a manner similar to that described in Test Example 1, except that Pseudomonas fluorescens, which is the Pseudomonas bacterium, was used in place of silver iodide, which is an ice nucleation active substance. The anti-ice nucleation active performance (supercooling acceleration performance) was measured by using a test method similar to that described in Test Example 1.

[2] = Anti-ice nucleation activity test with respect to biological material (beef liver), droplet-freezing method of Vali; settings: final concentration 0.1 mg/mL, 10 μL dropped on 1 mm x 1 mm x 1 mm beef liver; blank ultra-pure water; average of three tests
Protocol: as §2
as §3, with “C.)=BlankT50−SampleT50 […]” for “C.)=BlankT50−SampleT50”
The anti-ice nucleation active performance (supercooling acceleration performance) was measured by using a method similar to the droplet-freezing method of Vali described in Test Example 1. […]

[3] = adenine concentration series 0.1-6.0 (mM) per Example
[4] = polydeoxyadenylic acid with 6, 9 or 12 adenine bases, 1.0 mg/mL in TE buffer

Nc1ncnc2nc[nH]c12 [Example 13, adenine]
Anti-ice nucleation activity level (ΔT50) [1, 3]: 6.7 °C

Cn1cnc2c1c(=O)[nH]c(=O)n2C [Example 4, Theobromine]
Anti-ice nucleation activity level (ΔT50 = BlankT50 − SampleT50) [1]: 1.2 °C

Nc1ncnc2nc[nH]c12 [Example 11, adenine]
Anti-ice nucleation activity level (ΔT50) [1, 3]: 4.9 °C

Nc1ncnc2nc[nH]c12 [Example 14, adenine]
Anti-ice nucleation activity level (ΔT50) [1, 3]: 7.2 °C

polydeoxyadenylic acid [Example 17]
Anti-ice nucleation activity level (ΔT50) [1, 4]: 1.60 °C

O=c1[nH]c(=O)c2[nH]c(=O)[nH]c2[nH]1 [Example 6, Uric acid]
Anti-ice nucleation activity level (ΔT50 = BlankT50 − SampleT50) [1]: 1.8 °C

Nc1ncnc2nc[nH]c12 [Example 1, adenine]
Anti-ice nucleation active performance (ΔT50) (Pseudomonas fluorescens): 1.0 °C | Anti-ice nucleation activity level (ΔT50) [1, 3]: 9.2 °C | Anti-ice nucleation activity level (ΔT50 = BlankT50 − SampleT50) [1]: 9.2 °C | Anti-ice nucleation activity level with respect to beef liver [2]: 0.9 °C

Cn1c(=O)c2c(ncn2C)n(C)c1=O [Example 5, Caffeine]
Anti-ice nucleation activity level (ΔT50 = BlankT50 − SampleT50) [1]: 1.3 °C | Anti-ice nucleation activity level with respect to beef liver [2]: 0.7 °C

Nc1ncnc2nc[nH]c12 [Example 9, adenine]
Anti-ice nucleation activity level (ΔT50) [1, 3]: 2.3 °C

Nc1ncnc2nc[nH]c12 [Example 12, adenine]
Anti-ice nucleation activity level (ΔT50) [1, 3]: 7.8 °C

polydeoxyadenylic acid [Example 15]
Anti-ice nucleation activity level (ΔT50) [1, 4]: 1.26 °C

Cn1c(=O)c2[nH]cnc2n(C)c1=O [Example 7, Theophylline]
Anti-ice nucleation activity level (ΔT50 = BlankT50 − SampleT50) [1]: 2.0 °C

Nc1nc2nc[nH]c2c(=O)[nH]1 [Example 2, Guanine]
Anti-ice nucleation activity level (ΔT50 = BlankT50 − SampleT50) [1]: 1.0 °C

polydeoxyadenylic acid [Example 16]
Anti-ice nucleation activity level (ΔT50) [1, 4]: 1.43 °C

Nc1ncnc2nc[nH]c12 [Example 10, adenine]
Anti-ice nucleation activity level (ΔT50) [1, 3]: 4.3 °C

O=c1[nH]cnc2nc[nH]c12 [Example 3, Hypoxanthine]
Anti-ice nucleation activity level (ΔT50 = BlankT50 − SampleT50) [1]: 2.1 °C

Nc1ncnc2nc[nH]c12 [Example 8, adenine]
Anti-ice nucleation activity level (ΔT50) [1, 3]: 1.7 °C
